Where two headings read alike, the source gives them in different places. Square brackets hold non-standard residues; d marks the D form. Peptide text beside a SMILES is read from it. * marks the point of attachment. Tyr(3,5-(NO2)2) = N[C@@H](Cc1cc([N+](=O)[O-])c(O)c([N+](=O)[O-])c1)C(=O)O; His(Trt) = N[C@@H](Cc1cn(C(c2ccccc2)(c2ccccc2)c2ccccc2)cn1)C(=O)O; His(τ-CHPh2) = N[C@@H](Cc1cn(C(c2ccccc2)c2ccccc2)cn1)C(=O)O; Tyr(3-NO2) = N[C@@H](Cc1ccc(O)c([N+](=O)[O-])c1)C(=O)O; Biotin = O=C1N[C@H]2[C@H](CS[C@H]2CCCCC(=O)*)N1; Tyr(3-Cl) = N[C@@H](Cc1ccc(O)c(Cl)c1)C(=O)O; Tyr(3-NH2) = Nc1cc(C[C@H](N)C(=O)O)ccc1O; dPhe(4-Me) = Cc1ccc(C[C@@H](N)C(=O)O)cc1; Phe(4-Me) = Cc1ccc(C[C@H](N)C(=O)O)cc1; d3Pal = N[C@H](Cc1cccnc1)C(=O)O; Octanoyl = CCCCCCCC(=O)*; Orn = NCCC[C@H](N)C(=O)O
Target: T1, GPR39 (Homo sapiens, UniProt O43194)
T1 sequence (O43194 1-453): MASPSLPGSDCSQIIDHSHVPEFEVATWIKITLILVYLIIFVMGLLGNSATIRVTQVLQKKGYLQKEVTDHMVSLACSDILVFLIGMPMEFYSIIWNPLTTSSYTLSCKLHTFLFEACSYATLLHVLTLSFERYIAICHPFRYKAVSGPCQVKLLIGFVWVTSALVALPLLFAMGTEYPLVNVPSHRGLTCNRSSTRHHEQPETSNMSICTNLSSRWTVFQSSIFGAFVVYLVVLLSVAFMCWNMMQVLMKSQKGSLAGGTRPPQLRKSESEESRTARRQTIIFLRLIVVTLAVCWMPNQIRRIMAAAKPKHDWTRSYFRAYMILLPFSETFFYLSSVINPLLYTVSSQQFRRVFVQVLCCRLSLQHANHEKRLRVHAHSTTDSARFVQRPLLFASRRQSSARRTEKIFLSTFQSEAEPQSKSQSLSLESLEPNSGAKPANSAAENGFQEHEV
Assay: luciferase assay system (SRE luciferase reporter gene, CV-1 cells expressing GPR39)
Format: cell-based
Design: expressed in transfected cells; host or cells: CV-1 fibroblast cell line (Korea Cell Line Bank), adenoviral transduction at 50 MOI
Details: for activity level for GPR39 (in words): comment on Table 3

ECmax (−fold induction over basal) [fold induction over basal] | SMILES | activity level for GPR39 (in words) | ECmax (−fold induction over basal) (CV-1 cells, GPR39 and SRE luciferase adenovirus, 6 hours treatment) [fold induction over basal]
28.1 ± 2.1 | CCCCCCCC(=O)NCCCC[C@H](NC(=O)[C@H](N)Cc1cn(C(c2ccccc2)c2ccccc2)cn1)C(=O)N[C@H](Cc1ccc(C)cc1)C(=O)N[C@@H](Cc1ccc(O)cc1)C(=O)O [HKFY-62, ((R)-2-((S)-2-((R)-2-amino-3-(1-benzhydryl-1H-imidazol-4-yl)propanamido)-6-octanamidohexanamido)-3-(p-tolyl)propanoyl)-L-tyrosine] | – | –
13.5 ± 1.8 | CCCCCCCC(=O)NCCCC[C@H](NC(=O)[C@@H](N)Cc1c[nH]c(-c2cccs2)n1)C(=O)N[C@H](Cc1ccc(C)cc1)C(=O)N[C@@H](Cc1ccc(O)cc1)C(=O)O [HKFY-63, ((R)-2-((S)-2-((S)-2-amino-3-(2-(thiophen-2-yl)-1H-imidazol-4-yl)propanamido)-6-octanamidohexanamido)-3-(p-tolyl)propanoyl)-L-tyrosine] | higher activity level than other HKFY derivatives | –
16 ± 1.5 | CCCCCCCC(=O)NCCCC[C@H](NC(=O)[C@@H](N)Cc1cn(C(c2ccccc2)c2ccc(OC)cc2)cn1)C(=O)N[C@H](Cc1ccc(C)cc1)C(=O)N[C@@H](Cc1ccc(O)cc1)C(=O)O (stereo partly drawn) [HKFY-64, ((2R)-2-((2S)-2-((2S)-2-amino-3-(1-((4-methoxyphenyl)(phenyl)methyl)-1H-imidazol-4-yl)propanamido)-6-octanamidohexanamido)-3-(p-tolyl)propanoyl)-L-tyrosine] | higher activity level than other HKFY derivatives | –
18.3 ± 2.2 | CCCCCCCC(=O)NCCCC[C@H](NC(=O)[C@@H](N)Cc1cn(C(c2ccccc2)c2ccc(O)cc2)cn1)C(=O)N[C@H](Cc1ccc(C)cc1)C(=O)N[C@@H](Cc1ccc(O)cc1)C(=O)O (stereo partly drawn) [HKFY-65, ((2R)-2-((2S)-2-((2S)-2-amino-3-(1-((4-hydroxyphenyl)(phenyl)methyl)-1H-imidazol-4-yl)propanamido)-6-octanamidohexanamido)-3-(p-tolyl)propanoyl)-L-tyrosine] | higher activity level than other HKFY derivatives | –
20.2 ± 3.5 | CCCCCCCC(=O)NCCCC[C@H](NC(=O)[C@@H](N)Cc1cn(C(c2ccccc2)c2ccccc2)cn1)C(=O)N[C@H](Cc1ccc(C)cc1)C(=O)N[C@@H](Cc1ccc(O)cc1)C(N)=O [HKFY-66, N-((S)-5-((S)-2-amino-3-(1-benzhydryl-1H-imidazol-4-yl)propanamido)-6-(((R)-1-(((S)-1-amino-3-(4-hydroxyphenyl)-1-oxopropan-2-yl)amino)-1-oxo-3-(p-tolyl)propan-2-yl)amino)-6-oxohexyl)octanamide] (H-[His(τ-CHPh2)]K(Octanoyl)[dPhe(4-Me)]Y-NH2) | – | –
10.2 ± 1.51 | CCCCCCCC(=O)NCCCC[C@H](NC(=O)[C@@H](N)Cc1cn(C(c2ccccc2)c2ccccc2)cn1)C(=O)N[C@H](Cc1ccc(C)cc1)C(=O)N[C@@H](Cc1ccc(O)c(Cl)c1)C(=O)O [HKFY-67, (S)-2-((R)-2-((S)-2-((S)-2-amino-3-(1-benzhydryl-1H-imidazol-4-yl)propanamido)-6-octanamidohexanamido)-3-(p-tolyl)propanamido)-3-(3-chloro-4-hydroxyphenyl)propanoic acid] (H-[His(τ-CHPh2)]K(Octanoyl)[dPhe(4-Me)][Tyr(3-Cl)]-OH) | – | –
10.8 ± 1.41 | CCCCCCCC(=O)NCCCC[C@H](NC(=O)[C@@H](N)Cc1cn(C(c2ccccc2)c2ccccc2)cn1)C(=O)N[C@H](Cc1ccc(C)cc1)C(=O)N[C@@H](Cc1ccc(O)c([N+](=O)[O-])c1)C(=O)O [HKFY-68, (S)-2-((R)-2-((S)-2-((S)-2-amino-3-(1-benzhydryl-1H-imidazol-4-yl)propanamido)-6-octanamidohexanamido)-3-(p-tolyl)propanamido)-3-(4-hydroxy-3-nitrophenyl)propanoic acid] (H-[His(τ-CHPh2)]K(Octanoyl)[dPhe(4-Me)][Tyr(3-NO2)]-OH) | – | –
– | CCCCCCCC(=O)NCCCC[C@H](NC(=O)[C@@H](N)Cc1cn(C(c2ccccc2)c2ccccc2)cn1)C(=O)N[C@H](Cc1ccc(C)cc1)C(=O)N[C@@H](Cc1cc([N+](=O)[O-])c(O)c([N+](=O)[O-])c1)C(=O)O [HKFY-69, (S)-2-((R)-2-((S)-2-((S)-2-amino-3-(1-benzhydryl-1H-imidazol-4-yl)propanamido)-6-octanamidohexanamido)-3-(p-tolyl)propanamido)-3-(4-hydroxy-3,5-dinitrophenyl)propanoic acid] (H-[His(τ-CHPh2)]K(Octanoyl)[dPhe(4-Me)][Tyr(3,5-(NO2)2)]-OH) | – | 12.2 ± 2.5
10.1 ± 1.6 | CCCCCCCC(=O)NCCCC[C@H](NC(=O)[C@@H](N)Cc1cn(C(c2ccccc2)c2ccccc2)cn1)C(=O)N[C@H](Cc1ccc(C)cc1)C(=O)N[C@@H](Cc1ccc(O)c(N)c1)C(=O)O [HKFY-70, (S)-2-((R)-2-((S)-2-((S)-2-amino-3-(1-benzhydryl-1H-imidazol-4-yl)propanamido)-6-octanamidohexanamido)-3-(p-tolyl)propanamido)-3-(3-amino-4-hydroxyphenyl)propanoic acid] (H-[His(τ-CHPh2)]K(Octanoyl)[dPhe(4-Me)][Tyr(3-NH2)]-OH) | – | –
16.4 ± 2.51 | CCCCCCCC(=O)NCCC[C@H](NC(=O)[C@@H](N)Cc1cn(C(c2ccccc2)c2ccccc2)cn1)C(=O)N[C@H](Cc1ccc(C)cc1)C(=O)N[C@@H](Cc1ccc(O)cc1)C(=O)O [HKFY-71, ((R)-2-((S)-2-((S)-2-amino-3-(1-benzhydryl-1H-imidazol-4-yl)propanamido)-5-octanamidopentanamido)-3-(p-tolyl)propanoyl)-L-tyrosine] (H-[His(τ-CHPh2)][Orn](Octanoyl)[dPhe(4-Me)]Y-OH) | – | –
10.4 ± 1.12 | CCCCCCCC(=O)NCCCC[C@H](NC(=O)[C@H](Cc1cn(C(c2ccccc2)c2ccccc2)cn1)NC(=O)CCCC[C@@H]1SC[C@@H]2NC(=O)N[C@@H]21)C(=O)N[C@@H](Cc1ccc(C)cc1)C(=O)N[C@@H](Cc1ccc(O)cc1)C(=O)O [HKFY-72, ((S)-2-((S)-2-((S)-3-(1-benzhydryl-1H-imidazol-4-yl)-2-(5-((3aS,4S,6aR)-2-oxohexahydro-1H-thieno[3,4-d]imidazol-4-yl)pentanamido)propanamido)-6-octanamidohexanamido)-3-(p-tolyl)propanoyl)-L-tyrosine] (Biotin-[His(τ-CHPh2)]K(Octanoyl)[Phe(4-Me)]Y-OH) | – | –
11.6 ± 2.3 | CCCCCCCC(=O)NCCCC[C@H](NC(=O)[C@@H](N)Cc1cn(C(c2ccccc2)(c2ccccc2)c2ccccc2)cn1)C(=O)N[C@H](Cc1cccnc1)C(=O)N[C@@H](Cc1ccc(O)cc1)C(=O)O [HKFY-73, ((R)-2-((S)-2-((S)-2-amino-3-(1-trityl-1H-imidazol-4-yl)propanamido)-6-octanamidohexanamido)-3-(pyridin-3-yl)propanoyl)-L-tyrosine] (H-[His(Trt)]K(Octanoyl)[d3Pal]Y-OH) | – | –
